Source: PubChem BioAssay AID1259407 (Chemical Carcinogenesis Research Information System (CCRIS), 2018)
Calls of active or inactive are those of the source. The rule behind the calls is not given here.

Tested on: CCRIS mutagenicity, Ames/micronucleus/aberration tests
Test: CCRIS mutagenicity studies
[1] = Test System: AMES SALMONELLA TYPHIMURIUM, Strain/Indicator: TA100, Metabolic Activation: NONE, Method: STANDARD PLATE
[2] = Test System: AMES SALMONELLA TYPHIMURIUM, Strain/Indicator: TA102, Metabolic Activation: NONE, Method: STANDARD PLATE
[3] = Test System: AMES SALMONELLA TYPHIMURIUM, Strain/Indicator: TA98, Metabolic Activation: NONE, Method: STANDARD PLATE
[4] = Test System: AMES SALMONELLA TYPHIMURIUM, Strain/Indicator: TA100, Metabolic Activation: RAT, LIVER, S-9, AROCLOR 1254, Method: STANDARD PLATE

Question: `CC1(C)CC(O)CC(C)(C)N1[O]` was tested. Which mutagenic call [1] did it give?
Answer: active; positive

Question: And the mutagenic call [2]?
Answer: inactive; negative

Question: And the mutagenic call (Test System: AMES SALMONELLA TYPHIMURIUM, Strain/Indicator: TA102, Metabolic Activation: XANTHINE OXIDASE, Method: STANDARD PLATE)?
Answer: inactive; negative

Question: What about the mutagenic call (Test System: AMES SALMONELLA TYPHIMURIUM, Strain/Indicator: TA104, Metabolic Activation: NONE, Method: STANDARD PLATE) of the same compound?
Answer: inactive; negative

Question: What about the mutagenic call (Test System: AMES SALMONELLA TYPHIMURIUM, Strain/Indicator: TA104, Metabolic Activation: XANTHINE OXIDASE, Method: STANDARD PLATE) of the same compound?
Answer: inactive; negative

Question: And the mutagenic call (Test System: Mouse lymphoma, Strain/Indicator: L5178Y (tk+/tk-), Metabolic Activation: None, Method: Suspension/plate)?
Answer: active; positive

Question: And the mutagenic call (Test System: Mouse lymphoma, Strain/Indicator: L5178Y (tk+/tk-), Metabolic Activation: Rat, Liver, S-9, Aroclor 1254, Method: Suspension/plate)?
Answer: active; positive

Question: Which mutagenic call (Test System: AMES SALMONELLA TYPHIMURIUM, Strain/Indicator: TA98, Metabolic Activation: HAMSTER, LIVER, S-9, AROCLOR 1254 (10%), Method: STANDARD PLATE) does the source give for `O=C1C=CC(=O)N1c1ccc(Cc2ccc(N3C(=O)C=CC3=O)cc2)cc1` here?
Answer: inactive; negative

Question: And the mutagenic call [3]?
Answer: inactive; negative

Question: And the mutagenic call (Test System: AMES SALMONELLA TYPHIMURIUM, Strain/Indicator: TA98, Metabolic Activation: RAT, LIVER, S-9, AROCLOR 1254 (10%), Method: STANDARD PLATE)?
Answer: inactive; negative

Question: What about the mutagenic call (Test System: AMES SALMONELLA TYPHIMURIUM, Strain/Indicator: TA100, Metabolic Activation: HAMSTER, LIVER, S-9, AROCLOR 1254 (10%), Method: STANDARD PLATE) of the same compound?
Answer: inactive; negative

Question: What about the mutagenic call [1] of the same compound?
Answer: inactive; negative

Question: What about the mutagenic call (Test System: AMES SALMONELLA TYPHIMURIUM, Strain/Indicator: TA100, Metabolic Activation: RAT, LIVER, S-9, AROCLOR 1254 (10%), Method: STANDARD PLATE) of the same compound?
Answer: inactive; negative

Question: And the mutagenic call (Test System: AMES SALMONELLA TYPHIMURIUM, Strain/Indicator: TA1535, Metabolic Activation: HAMSTER, LIVER, S-9, AROCLOR 1254 (10%), Method: STANDARD PLATE)?
Answer: inactive; negative

Question: What about the mutagenic call (Test System: AMES SALMONELLA TYPHIMURIUM, Strain/Indicator: TA1535, Metabolic Activation: NONE, Method: STANDARD PLATE) of the same compound?
Answer: inactive; negative

Question: What about the mutagenic call (Test System: AMES SALMONELLA TYPHIMURIUM, Strain/Indicator: TA1535, Metabolic Activation: RAT, LIVER, S-9, AROCLOR 1254 (10%), Method: STANDARD PLATE) of the same compound?
Answer: inactive; negative

Question: What about the mutagenic call (Test System: AMES SALMONELLA TYPHIMURIUM, Strain/Indicator: TA1537, Metabolic Activation: HAMSTER, LIVER, S-9, AROCLOR 1254 (10%), Method: STANDARD PLATE) of the same compound?
Answer: inactive; negative

Question: And the mutagenic call (Test System: AMES SALMONELLA TYPHIMURIUM, Strain/Indicator: TA1537, Metabolic Activation: NONE, Method: STANDARD PLATE)?
Answer: inactive; negative

Question: What about the mutagenic call (Test System: AMES SALMONELLA TYPHIMURIUM, Strain/Indicator: TA1537, Metabolic Activation: RAT, LIVER, S-9, AROCLOR 1254 (10%), Method: STANDARD PLATE) of the same compound?
Answer: inactive; negative

Question: And the mutagenic call (Test System: AMES SALMONELLA TYPHIMURIUM, Strain/Indicator: TA1538, Metabolic Activation: HAMSTER, LIVER, S-9, AROCLOR 1254 (10%), Method: STANDARD PLATE)?
Answer: inactive; negative

Question: And the mutagenic call (Test System: AMES SALMONELLA TYPHIMURIUM, Strain/Indicator: TA1538, Metabolic Activation: NONE, Method: STANDARD PLATE)?
Answer: inactive; negative

Question: And the mutagenic call (Test System: AMES SALMONELLA TYPHIMURIUM, Strain/Indicator: TA1538, Metabolic Activation: RAT, LIVER, S-9, AROCLOR 1254 (10%), Method: STANDARD PLATE)?
Answer: inactive; negative

Question: What about the mutagenic call (Test System: MOUSE LYMPHOMA, Strain/Indicator: L5178Y (TK+/TK-), Metabolic Activation: NONE, Method: SUSPENSION/PLATE) of the same compound?
Answer: inactive; negative. reevaluation of results: negative

Question: What about the mutagenic call (Test System: MOUSE LYMPHOMA, Strain/Indicator: L5178Y (TK+/TK-), Metabolic Activation: RAT, LIVER, S-9, AROCLOR 1254, Method: SUSPENSION/PLATE) of the same compound?
Answer: active; positive. reevaluation of results: equivocal

Question: Which results are given for `NN(c1ccccc1)c1ccccc1`?
Answer: mutagenic call (Test System: AMES SALMONELLA TYPHIMURIUM, Strain/Indicator: TA97, Metabolic Activation: NONE, Method: STANDARD PLATE): inactive; negative; mutagenic call (Test System: AMES SALMONELLA TYPHIMURIUM, Strain/Indicator: TA97, Metabolic Activation: RAT, LIVER, S-9, AROCLOR 1254, Method: STANDARD PLATE): inactive; negative; mutagenic call [1]: inactive; negative; mutagenic call [4]: inactive; negative

Question: `BrCc1cc2c3c(cccc3c1)-c1ccccc1-2` was tested. Which mutagenic call [3] did it give?
Answer: active; positive

Question: What about the mutagenic call [1] of the same compound?
Answer: active; positive

Question: For `O=C1C=Cc2ccc3c(ccc4ccccc43)c2C1=O`, which mutagenic call [3] is on record?
Answer: inactive; negative

Question: What about the mutagenic call [4] of the same compound?
Answer: active; positive

Question: Which mutagenic call [1] does the source give for `CCC(=O)NCc1ccccc1` here?
Answer: inactive; negative

Question: With `C[n+]1ccc(-c2cc[n+](C)cc2)cc1` as the compound, how does the mutagenic call (End Point: IN VIVO MICRONUCLEUS, Test System: BONE MARROW POLYCHROMATIC ERYTHROCYTES, Species: RAT, Strain/Sex: SPRAGUE DAWLEY/MALE, Route: DERMAL) read?
Answer: active; positive; maximal response at 48 hr

Question: And the mutagenic call [2]?
Answer: inactive; negative

Question: And the mutagenic call (Test System: AMES SALMONELLA TYPHIMURIUM, Strain/Indicator: TA2638, Metabolic Activation: NONE, Method: STANDARD PLATE)?
Answer: inactive; negative

Question: And the mutagenic call (Test System: CHINESE HAMSTER G10, Strain/Indicator: G10 (GPT)/6-THIOGUANINE, Metabolic Activation: NONE)?
Answer: inactive; negative

Question: What about the mutagenic call (Test System: CHINESE HAMSTER G12, Strain/Indicator: G12 (GPT)/6-THIOGUANINE, Metabolic Activation: NONE) of the same compound?
Answer: inactive; negative

Question: What about the mutagenic call (Test System: CHINESE HAMSTER V-79, Strain/Indicator: V-79 (HPRT)/6-THIOGUANINE, Metabolic Activation: NONE) of the same compound?
Answer: inactive; negative

Question: What about the mutagenic call (Test System: E. COLI, Strain/Indicator: WP2 (PKM101), Metabolic Activation: NONE, Method: STANDARD PLATE) of the same compound?
Answer: inactive; negative

Question: And the mutagenic call (Test System: E. COLI, Strain/Indicator: WP2 UVRA (PKM101), Metabolic Activation: NONE, Method: STANDARD PLATE)?
Answer: inactive; negative
